# Experimental data published in publication PMC6838048, “A Cell-Free Approach Based on Phospholipid Characterization for Determination of the Cell Specific Unbound Drug Fraction (fu,cell)” (Pharmaceutical Research, 2019).
# Experiment: fu,PL from membrane affinity to PL-covered silica beads, PS
# Type: in vitro ADME
# Conditions: silica beads covered with phosphatidylserine (PS), Transil; beads coated with pure PS, 15 min incubation; read-out: fu,PS Geomean
# Experimental: (§1) f u,PL was derived from membrane affinity measurements to beads covered with PLs as previously described ([6]).
# (§2) Cbuffer was quantified by LC-MS/MS in samples of the supernatant that was obtained after 15 min incubation time on an orbital shaker at 1000 rpm and subsequent separation from the beads by centrifugation at 750 x g. […] Unspecific binding was evaluated by incubations into wells without added lipids.
row,fraction unbound at 15 min,Compound
1,0.0081,COCCc1ccc(OCC(O)CNC(C)C)cc1 (stereo not drawn) [Metoprolol]
2,0.0018,CCOc1nc2cccc(C(=O)O)c2n1Cc1ccc(-c2ccccc2-c2nnn[nH]2)cc1 [Candesartan]
3,0.0045,OC(Cn1cncn1)(Cn1cncn1)c1ccc(F)cc1F [Fluconazole]

# Experiment: fu,PL from membrane affinity to PL-covered silica beads, PE
# Type: in vitro ADME
# Conditions: beads coated with pure PE, 15 min incubation; read-out: fu,PE Geomean
# Experimental: as §1, §2
row,fraction unbound at 15 min,Compound
1,0.0099,COCCc1ccc(OCC(O)CNC(C)C)cc1 (stereo not drawn) [Metoprolol]
2,0.0055,CCOc1nc2cccc(C(=O)O)c2n1Cc1ccc(-c2ccccc2-c2nnn[nH]2)cc1 [Candesartan]
3,0.0081,OC(Cn1cncn1)(Cn1cncn1)c1ccc(F)cc1F [Fluconazole]

# Experiment: fu,PL from membrane affinity to PL-covered silica beads, mixed beads
# Type: in vitro ADME
# Conditions: mixed beads PC:PE:PS:PI 52:22:12:14 mol%, 15 min incubation; read-out: fu,mixed bead Geomean
# Experimental: as §1, §2
row,fraction unbound at 15 min,Compound
1,0.0148,COCCc1ccc(OCC(O)CNC(C)C)cc1 (stereo not drawn) [Metoprolol]
2,0.0081,CCOc1nc2cccc(C(=O)O)c2n1Cc1ccc(-c2ccccc2-c2nnn[nH]2)cc1 [Candesartan]
3,0.028,OC(Cn1cncn1)(Cn1cncn1)c1ccc(F)cc1F [Fluconazole]

# Experiment: fu,cell by equilibrium dialysis of cell homogenate, MDCK
# Type: in vitro ADME
# Conditions: dog, dialysis 4 h 37°C, 10 million cells/mL homogenate, read-out: fu,MDCK Geomean
# Experimental: (§3) fu,cell was measured in cassette-mode as previously described with minor modifications ([9]). Briefly, 10 million cells/mL were suspended in HBSS buffered with 10 mM HEPES and homogenized on ice by sonication (VCX 750 Sonicator, 3 mm probe, 20% intensity, 10 s). Up to 8 compounds were combined randomly and spiked into the homogenate for a final concentration of 0.5 μM. Equilibrium dialysis was performed in a Rapid Equilibirum device (Thermo Fisher Scientific) against blank HBSS buffered with 10 mM HEPES, for 4 h at 37°C on an orbital shaker at 900 rpm. Stability controls were kept at 4° and 37°C for the duration of the experiment. The concentration in both dialysis chambers was quantified by extracting the compound with acetonitrile/water (60/40) containing internal standard. Matrixes were matched with blank buffer or cell homogenate, respectively. LC-MS/MS parameters are available in Table S9. All experiments were carried out in triplicates and at least at two independent occasions.
# (§4) (3), assuming the Vcell to be equal to 6.5 μL/mg protein ([6],[10]). Protein content in the cell homogenates was determined at each experiment using the BCA Protein Assay Reagent Kit (Thermo Fisher Scientific Inc.).3 DP=1/Vcell
row,"fraction unbound at 4 h, 0.5 μM",Compound
1,0.202,COCCc1ccc(OCC(O)CNC(C)C)cc1 (stereo not drawn) [Metoprolol]
2,0.0968,CCOc1nc2cccc(C(=O)O)c2n1Cc1ccc(-c2ccccc2-c2nnn[nH]2)cc1 [Candesartan]
3,0.229,OC(Cn1cncn1)(Cn1cncn1)c1ccc(F)cc1F [Fluconazole]

# Experiment: fu,cell by equilibrium dialysis of cell homogenate, K562
# Type: in vitro ADME
# Conditions: human, dialysis 4 h 37°C, 10 million cells/mL homogenate, read-out: fu,K562 Geomean
# Experimental: as §3
# (§5) The unbound fraction in the cell homogenate (fu,hom) was determined according to Eq. (1):1 fu,hom=Cbuffer/Chom and the fraction of unbound compound in the cell (fu,cell) was calculated by correcting for homogenate dilution according to Eq. (2):2 fu,cell=1/DP∙1/fu,hom−1+1 where the dilution constant DP was calculated using Eq. (3), assuming the Vcell to be equal to 6.5 μL/mg protein ([6],[10]). Protein content in the cell homogenates was determined at each experiment using the BCA Protein Assay Reagent Kit (Thermo Fisher Scientific Inc.).3 DP=1/Vcell
row,"fraction unbound at 4 h, 0.5 μM",Compound
1,1,COCCc1ccc(OCC(O)CNC(C)C)cc1 (stereo not drawn) [Metoprolol]
2,0.948,CCOc1nc2cccc(C(=O)O)c2n1Cc1ccc(-c2ccccc2-c2nnn[nH]2)cc1 [Candesartan]
3,1,OC(Cn1cncn1)(Cn1cncn1)c1ccc(F)cc1F [Fluconazole]

# Experiment: fu,cell by equilibrium dialysis of cell homogenate, LLC-PK1
# Type: in vitro ADME
# Conditions: pig, dialysis 4 h 37°C, 10 million cells/mL homogenate, read-out: fu,LLCPK1 Geomean
# Experimental: as §3, §5
row,"fraction unbound at 4 h, 0.5 μM",Compound
1,0.34,COCCc1ccc(OCC(O)CNC(C)C)cc1 (stereo not drawn) [Metoprolol]
2,0.118,CCOc1nc2cccc(C(=O)O)c2n1Cc1ccc(-c2ccccc2-c2nnn[nH]2)cc1 [Candesartan]
3,0.159,OC(Cn1cncn1)(Cn1cncn1)c1ccc(F)cc1F [Fluconazole]

# Experiment: fu,cell by equilibrium dialysis of cell homogenate, Caco-2
# Type: in vitro ADME
# Conditions: human, Caco-2 cell homogenate, dialysis 4 h 37°C, 10 million cells/mL homogenate, read-out: fu,Caco-2 Geomean
# Experimental: as §3, §4
row,"fraction unbound at 4 h, 0.5 μM",Compound
1,0.174,COCCc1ccc(OCC(O)CNC(C)C)cc1 (stereo not drawn) [Metoprolol]
2,0.0945,CCOc1nc2cccc(C(=O)O)c2n1Cc1ccc(-c2ccccc2-c2nnn[nH]2)cc1 [Candesartan]
3,0.456,OC(Cn1cncn1)(Cn1cncn1)c1ccc(F)cc1F [Fluconazole]

# Experiment: fu,cell by equilibrium dialysis of cell homogenate, primary human hepatocytes
# Type: in vitro ADME
# Conditions: primary human hepatocyte homogenate, dialysis 4 h 37°C, 10 million cells/mL homogenate, read-out: fu,HH Geomean
# Experimental: as §3, §5
row,"fraction unbound at 4 h, 0.5 μM",Compound
1,0.374,COCCc1ccc(OCC(O)CNC(C)C)cc1 (stereo not drawn) [Metoprolol]
2,0.247,CCOc1nc2cccc(C(=O)O)c2n1Cc1ccc(-c2ccccc2-c2nnn[nH]2)cc1 [Candesartan]
3,0.737,OC(Cn1cncn1)(Cn1cncn1)c1ccc(F)cc1F [Fluconazole]

# Experiment: fu,PL from membrane affinity to PL-covered silica beads, PC
# Type: in vitro ADME
# Conditions: silica beads covered with phosphatidylcholine (PC), Transil; beads coated with pure PC, 15 min incubation; read-out: fu,PC Geomean
# Experimental: as §1, §2
row,fraction unbound at 15 min,Compound
1,0.0101,COCCc1ccc(OCC(O)CNC(C)C)cc1 (stereo not drawn) [Metoprolol]
2,0.0174,CCOc1nc2cccc(C(=O)O)c2n1Cc1ccc(-c2ccccc2-c2nnn[nH]2)cc1 [Candesartan]
3,0.0428,OC(Cn1cncn1)(Cn1cncn1)c1ccc(F)cc1F [Fluconazole]

# Experiment: fu,cell by equilibrium dialysis of cell homogenate, HEK293
# Type: in vitro ADME
# Conditions: human, dialysis 4 h 37°C, 10 million cells/mL homogenate, read-out: fu,HEK293 Geomean
# Experimental: as §3, §5
row,"fraction unbound at 4 h, 0.5 μM",Compound
1,0.0906,COCCc1ccc(OCC(O)CNC(C)C)cc1 (stereo not drawn) [Metoprolol]
2,0.246,CCOc1nc2cccc(C(=O)O)c2n1Cc1ccc(-c2ccccc2-c2nnn[nH]2)cc1 [Candesartan]
3,0.1,OC(Cn1cncn1)(Cn1cncn1)c1ccc(F)cc1F [Fluconazole]

# Experiment: fu,cell by equilibrium dialysis of cell homogenate, HL60
# Type: in vitro ADME
# Conditions: human, dialysis 4 h 37°C, 10 million cells/mL homogenate, read-out: fu,HL60 Geomean
# Experimental: as §3, §5
row,"fraction unbound at 4 h, 0.5 μM",Compound
1,0.339,COCCc1ccc(OCC(O)CNC(C)C)cc1 (stereo not drawn) [Metoprolol]
2,0.205,CCOc1nc2cccc(C(=O)O)c2n1Cc1ccc(-c2ccccc2-c2nnn[nH]2)cc1 [Candesartan]
3,0.646,OC(Cn1cncn1)(Cn1cncn1)c1ccc(F)cc1F [Fluconazole]

# Experiment: fu,cell by equilibrium dialysis of cell homogenate, A549
# Type: in vitro ADME
# Conditions: human, dialysis 4 h 37°C, 10 million cells/mL homogenate, read-out: fu,A549 Geomean
# Experimental: as §3, §5
row,"fraction unbound at 4 h, 0.5 μM",Compound
1,0.0881,COCCc1ccc(OCC(O)CNC(C)C)cc1 (stereo not drawn) [Metoprolol]
2,0.103,CCOc1nc2cccc(C(=O)O)c2n1Cc1ccc(-c2ccccc2-c2nnn[nH]2)cc1 [Candesartan]
3,0.159,OC(Cn1cncn1)(Cn1cncn1)c1ccc(F)cc1F [Fluconazole]
